Data set [1] has as its system brain homogenate lipid peroxidation. Kind of data set: Lipid peroxidation-inhibitory action (brain homogenate, MDA). The data set is classed as biochemical, SD rat. To be noted: rat brain homogenate, 37° C. for 30 min. The procedure: The brain was removed from male SD rat, and a 50 mM phosphate buffer (pH 7.4, 5-fold amount of brain weight) was added. The mixture was homogenized under ice-cooling for 30 sec, and centrifuged at 4° C., 3200 rpm for 10 min. The supernatant was diluted 5-fold with 50 mM phosphate buffer to give a brain homogenate. A test compound (10 μL) was placed in a glass test tube, the brain homogenate (1 mL) was added, and the mixture was incubated at 37° C. for 30 min. 20% Trichloroacetic acid (1 mL) was added to quench the reaction. The reaction mixture was centrifuged at room temperature, 4000 rpm for 10 min. Thiobarbituric acid (0.2 mL) was added to the supernatant (1 mL) and the mixture was heated at 95° C. for 15 min. The absorbance at 532 nm was measured, and lipid peroxide was quantified as malondialdehyde (MDA). The MDA level was compared between the control and the test compound-added sample, and the lipid peroxidation inhibitory rate was calculated.

Data set [2] in a line: Stable radical elimination action (DPPH). To be noted: 0.1 mM DPPH. The protocol:
0.1 mM Diphenyl-2-picrylhydrazyl (DPPH) acetonitrile (CH3CN) solution (3 mL) was placed in a glass test tube, and a DMSO solution of a test compound was added at a 1% dose (30 μL). As a control, 0.1 mM DPPH CH3CN solution (3 mL) containing DMSO (30 μL) was used and for a blank test, CH3CN (3 mL) containing DMSO (30 μL) was used. After standing the solutions at room temperature for 60 min (20 min for Examples 69, 72 and 73), the absorbance at 517 nm was measured by a spectrophotometer. A stable radical inhibitory rate when control was 100% was calculated from [(absorbance of test substance−absorbance of blank test)÷(absorbance of control−absorbance of blank test)].
On the technique in general: Loss of DPPH colour is used to gauge radical scavenging.

Data set [3] concerns THP-1 cell-derived macrophage. Kind of data set: Cholesterol ester accumulation-inhibitory activity (THP-1 cell-derived macrophage foam cell formation). Format: cell-based. As to conditions: THP-1 macrophage, acetyl LDL, 3 days. The protocol:
THP-1 cells (DAINIPPON PHARMACEUTICAL CO., LTD.) were subcultured in RPMI-1640 medium containing 10% fetal calf serum (FBS), and cells at 6-13th passage after purchase were used. The cells were suspended in FBS-containing RPMI-1640 medium to give a suspension having a concentration of 4×10^5 cells/mL. The cell suspension was seeded on 12-well microplate by 1 mL, and treated with phorbol 12-myristate 13-acetate (PMA, 200 nM) as a differentiation inducer into macrophage. Then, acetyl LDL (400 μg/mL) separately prepared from LDL derived from plasma of a rabbit with genetic hyperlipidemia (KHC rabbit, Japan Laboratory Animals Inc.) was added. A test compound further dissolved in dimethyl sulfoxide (DMSO) and diluted with FBS-containing RPMI-1640 medium and a control solvent were applied. After cultivation in a carbon dioxide incubator for 3 days, the cells were washed with phosphate-buffered saline (pH 7.0), and the lipid was extracted with hexane-isopropanol (3:2). In addition, the cells were lysed with 1N-NaOH, and the protein content was measured. Free cholesterol and cholesterol ester in the lipid extraction sample were measured according to the method of Kunitomo et al. [Japan. J. Pharmacol., 34, 153-158 (1984)]. Cholesterol esters in the control cells and the cells treated with the test compound were compared, and the cholesterol ester accumulation inhibitory rate of the test compound was calculated.

Data set [4] is described as follows: Oral administration experiment (plasma concentration). The data set is classed as in vivo. As to conditions: (10 mg)/kg orally, male SD rats, plasma 0.5-6 hr. The procedure: The test compound (10 mg)/kg suspended in 5% gum arabic solution was forcedly administered orally to male SD rats (body weight 200-250 g). At 0.5, 1, 2, 4, 6 hr after administration, blood was drawn without anesthesia, and heparin plasma was separated by a conventional method. The concentration of the test compound in the plasma was measured by high performance liquid chromatography.

The subject of data set [5] is liver ACAT. Kind of data set: ACAT inhibitory activity (rabbit liver microsome, cholesteryl oleate production). The data set is classed as biochemical, Japanese white rabbits. To be noted: 37° C. for 20 min. The protocol:
Male Japanese white rabbits (body weight 2-2.5 kg) were bred on 100 g of a high cholesterol feed (feed added with cholesterol 1%, CLEA Japan, Inc.) daily for 4 weeks and sacrificed by exsanguination under anesthesia. The liver was removed, homogenated and centrifuged at 10,000 rpm and 4° C. for 15 min. The obtained supernatant was further centrifuged at 41,000 rpm and 4° C. for 60 min to give a microsome fraction. To a 0.15 M phosphate buffer were added the microsome suspension as an enzyme specimen, dimethyl sulfoxide (DMSO) or a solution (3 μL) of a test compound in DMSO and [1-14C]-oleoyl-CoA to be a reaction substrate to the total amount of 300 μL. After incubation at 37° C. for 20 min, a mixed solution of chloroform-methanol was added to quench the reaction. Water was added thereto and mixed, and the chloroform layer was separated. The solvent was evaporated to dryness and the residue was redissolved in n-hexane. The resulting solution was subjected to thin layer chromatography using a silica gel plate. The spot of cholesteryl oleate on the silica gel plate was scraped and quantified on a liquid scintillation counter. The ACAT inhibitory activity of the test compound is shown in cholesteryl oleate production inhibitory rate (%) [level of inhibition of cholesteryl oleate production as compared to the control].
(In general: Microsomes from liver hold many membrane-bound enzymes, among them those of drug oxidation.)

`CCCCC(=O)N1Cc2ccccc2C[C@H]1C(=O)Nc1cc(C(C)(C)C)c(O)c(C(C)(C)C)c1` [Example 13, N-(3,5-di-tert-butyl-4-hydroxyphenyl)-2-pentanoyl-1,2,3,4-tetrahydroisoquinoline-(3S)-carboxamide]: in data set [1], the “inhibitory rate (%) (10^−4M), lipid peroxidation” value was determined as 100.1%.

Regarding `CC(C)(C)CN1Cc2ccccc2C[C@H]1C(=O)Nc1cc(C(C)(C)C)c(O)c(C(C)(C)C)c1` [Example 47, N-(3,5-di-tert-butyl-4-hydroxyphenyl)-2-(2,2-dimethylpropyl)-1,2,3,4-tetrahydroisoquinoline-(3S)-carboxamide], the “inhibitory rate (%) (10^−4M), stable radical” value in data set [2] (room temperature for 60 min) was 66.1%. The “inhibitory rate (%) (10^−4M), lipid peroxidation” value in data set [1] was 100.1%.

For `Cc1cc(NC(=O)[C@@H]2Cc3ccccc3CN2CC(C)(C)C)c(C)c(C)c1O.Cl` [Example 48, 2-(2,2-dimethylpropyl)-N-(4-hydroxy-2,3,5-trimethylphenyl)-1,2,3,4-tetrahydroisoquinoline-(3S)-carboxamide hydrochloride], in data set [2] (room temperature for 60 min), the “inhibitory rate (%) (10^−4M), stable radical” value was determined as 91.7%. In addition, in data set [1], the “inhibitory rate (%) (10^−4M), lipid peroxidation” value came out at 100.5%.

With `Cc1cc(NC(=O)[C@@H]2Cc3ccccc3CN2C(=O)C(C)C)c(C)c(C)c1O` [Example 50, N-(4-hydroxy-2,3,5-trimethylphenyl)-2-isobutyryl-1,2,3,4-tetrahydroisoquinoline-(3S)-carboxamide], in data set [1], the “inhibitory rate (%) (10^−4M), lipid peroxidation” value turned out to be 85.7%.

For `CCCCCN1Cc2ccccc2C[C@H]1C(=O)Nc1cc(C(C)(C)C)c(O)c(C(C)(C)C)c1` [Example 51, N-(3,5-di-tert-butyl-4-hydroxyphenyl)-2-pentyl-1,2,3,4-tetrahydroisoquinoline-(3S)-carboxamide], the “inhibitory rate (%) (10^−4M), stable radical” value in data set [2] (room temperature for 60 min) amounted to 63.8%. Moreover, the “inhibitory rate (%) (10^−4M), lipid peroxidation” value in data set [1] was found to be 100.3%.

As to `Cc1cc(NC(=O)[C@@H]2Cc3ccc(N(C)C)cc3CN2C(=O)C(C)C)c(C)c(C)c1O.Cl` [Example 72, 7-dimethylamino-N-(4-hydroxy-2,3,5-trimethylphenyl)-2-isobutyryl-1,2,3,4-tetrahydroisoquinoline-(3S)-carboxamide hydrochloride], the “inhibitory rate (%) (10^−4M), stable radical” value in data set [2] (room temperature 20 min (Examples 69, 72 and 73)) amounted to 97.0%. Besides, in data set [3], the “cholesteryl ester accumulation inhibitory rate (%) (concentration: 10^−6 M)” value stood at 80.5%. In addition, the “maximum blood concentration” value in data set [4] is 0.91 µg/mL. For the same molecule, the “liver ACAT inhibition rate (%) (concentration: 10^−6 M)” value in data set [5] is recorded as 91.4%.

Take `CCCN1Cc2cc(N(C)C)ccc2C[C@H]1C(=O)Nc1cc(C)c(O)c(C)c1C` [Example 84, 7-dimethylamino-N-(4-hydroxy-2,3,5-trimethylphenyl)-2-propyl-1,2,3,4-tetrahydroisoquinoline-(3S)-carboxamide]: in data set [2] (room temperature for 60 min), the “inhibitory rate (%) (10^−4M), stable radical” value came to 71.9%. Moreover, in data set [1], the “inhibitory rate (%) (10^−4M), lipid peroxidation” value is reported as 100.9%.

On to `Cc1cc(NC(=O)[C@@H]2Cc3ccc(N4CCN(C)CC4)cc3CN2C(=O)C(C)(C)C)c(C)c(C)c1O` [Example 122, 2-(2,2-dimethylpropionyl)-N-(4-hydroxy-2,3,5-trimethylphenyl)-7-(4-methylpiperazin-1-yl)-1,2,3,4-tetrahydroisoquinoline-(3S)-carboxamide], for which the “inhibitory rate (%) (10^−4M), stable radical” value in data set [2] (room temperature for 60 min) is on record as 72.3%. For the same molecule, the “inhibitory rate (%) (10^−4M), lipid peroxidation” value in data set [1] was 75.9%. In addition, in data set [4], the “maximum blood concentration” value is 0.60 µg/mL.

`CCCCCCCC(C)(C)CN1Cc2cc(OC(C)(C)C(=O)O)ccc2C[C@H]1c1cc(C)c(O)c(C)c1C` [Example 132, 2-{[2-(2,2-dimethylnonyl)-(3S)-(4-hydroxy-2,3,5-trimethylphenyl)-1,2,3,4-tetrahydroisoquinolin-7-yl]oxy}-2-methylpropionic acid]: in data set [2] (room temperature for 60 min), the “inhibitory rate (%) (10^−4M), stable radical” value stood at 80.7%. For the same molecule, the “inhibitory rate (%) (10^−4M), lipid peroxidation” value in data set [1] was determined as 105.6%.

As for `CCN(CC)Cc1ccc2c(c1)CN(C(=O)C(C)(C)C)[C@H](C(=O)Nc1cc(C)c(O)c(C)c1C)C2` [Example 133, 7-diethylaminomethyl-2-(2,2-dimethylpropionyl)-N-(4-hydroxy-2,3,5-trimethylphenyl)-1,2,3,4-tetrahydroisoquinoline-(3S)-carboxamide], the “inhibitory rate (%) (10^−4M), stable radical” value in data set [2] (room temperature for 60 min) turned out to be 65.5%. The “maximum blood concentration” value in data set [4] was 0.48 µg/mL.

For the molecule `CCCN(C)Cc1ccc2c(c1)CN(C(=O)C(C)(C)C)[C@H](C(=O)Nc1cc(C)c(O)c(C)c1C)C2` [Example 136, 2-(2,2-dimethylpropionyl)-N-(4-hydroxy-2,3,5-trimethylphenyl)-7-(N-methylpropylamino)methyl-1,2,3,4-tetrahydroisoquinoline-(3S)-carboxamide], the “inhibitory rate (%) (10^−4M), stable radical” value in data set [2] (room temperature for 60 min) is 71.3%. Moreover, in data set [1], the “inhibitory rate (%) (10^−4M), lipid peroxidation” value was found to be 89.6%. Also, the “cholesteryl ester accumulation inhibitory rate (%) (concentration: 10^−6 M)” value in data set [3] was determined as 66.4%.

For the molecule `CCCN(C)Cc1ccc2c(c1)CN(C(=O)C(C)C)[C@H](C(=O)Nc1cc(C)c(O)c(C)c1C)C2` [Example 138, N-(4-hydroxy-2,3,5-trimethylphenyl)-2-isobutyryl-7-(N-methylpropylamino)methyl-1,2,3,4-tetrahydroisoquinoline-(3S)-carboxamide], the “maximum blood concentration” value in data set [4] came to 0.42 µg/mL.

In the case of `Cc1cc(NC(=O)[C@@H]2Cc3ccc(CN(C)CCF)cc3CN2C(=O)C(C)(C)C)c(C)c(C)c1O` [Example 139, 2-(2,2-dimethylpropionyl)-7-(2-fluoro-N-methylethylamino)methyl-N-(4-hydroxy-2,3,5-trimethylphenyl)-1,2,3,4-tetrahydroisoquinoline-(3S)-carboxamide], the “inhibitory rate (%) (10^−4M), lipid peroxidation” value in data set [1] was 99.7%. In data set [3], the “cholesteryl ester accumulation inhibitory rate (%) (concentration: 10^−6 M)” value came out at 84.6%.

On to `Cc1cc(NC(=O)[C@@H]2Cc3ccc(CNCCF)cc3CN2C(=O)C(C)(C)C)c(C)c(C)c1O.Cl` [Example 140, 2-(2,2-dimethylpropionyl)-7-(2-fluoroethylamino)methyl-N-(4-hydroxy-2,3,5-trimethylphenyl)-1,2,3,4-tetrahydroisoquinoline-(3S)-carboxamide hydrochloride], for which the “maximum blood concentration” value in data set [4] came out at 0.44 µg/mL.

With `Cc1cc(NC(=O)[C@@H]2Cc3ccc(CN4CC(F)C4)cc3CN2C(=O)C(C)(C)C)c(C)c(C)c1O.Cl` [Example 141, 2-(2,2-dimethylpropionyl)-7-(3-fluoroazetidin-1-yl)methyl-N-(4-hydroxy-2,3,5-trimethylphenyl)-1,2,3,4-tetrahydroisoquinoline-(3S)-carboxamide hydrochloride], the “inhibitory rate (%) (10^−4M), stable radical” value in data set [2] (room temperature for 60 min) is listed as 63.7%. Moreover, in data set [1], the “inhibitory rate (%) (10^−4M), lipid peroxidation” value was found to be 94.8%. Also, the “cholesteryl ester accumulation inhibitory rate (%) (concentration: 10^−6 M)” value in data set [3] was 88.0%. The “maximum blood concentration” value in data set [4] came out at 0.49 µg/mL.
